# Measured values published in US8802597B2, “Herbicidal pyrimidines” (E I du Pont de Nemours and Company, priority 2003, dated 2014).
# Assays:
# Format in all cases: in vivo
# [1] = test system: barnyardgrass (Echinochloa crus-galli); test: Test B flooded paddy test; details: Flood, 1000 g ai/ha; scale 0 (no effect) to 100 (complete control)
# Summary of the method: (§1)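 Plants were grown to the 2-leaf stage before treatment, then kept in a greenhouse for 13 to 15 days. Injury was rated visually against untreated controls on a 0 to 100 scale, where 0 is no effect and 100 is complete control.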
# [2] = test system: rice (Oryza sativa); test: Test B flooded paddy test; details: Flood, 1000 g ai/ha; scale 0 to 100
# Summary of the method: as §1
# [3] = test system: duck salad (Heteranthera limosa); test: Test B flooded paddy test; details: Flood, 1000 g ai/ha; scale 0 to 100
# Summary of the method: as §1
# [4] = test system: umbrella sedge (Cyperus difformis); test: Test B flooded paddy test; details: Flood, 1000 g ai/ha; scale 0 to 100
# Summary of the method: as §1
# [5] = test system: wild oat (Avena fatua); test: Test B postemergence; details: for Oat, Wild plant response rating: 125 g ai/ha, scale 0 to 100 (0 no effect, 100 complete control); for Plant response rating, Oat, Wild: 500 g ai/ha, scale 0 to 100
# Summary of the method: (§2)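 Visual rating, 0 (no effect) to 100 (complete control) versus controls, taken 13–15 days after treatment in greenhouse. Compounds formulated in non-phytotoxic solvent plus surfactant; pre: sprayed after seeding; post: plants at 1- to 4-leaf stage, 2–18 cm.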
# [6] = test system: blackgrass (Alopecurus myosuroides); test: Test B postemergence; details: for Blackgrass plant response rating: 125 g ai/ha, scale 0 to 100 (0 no effect, 100 complete control); for Plant response rating, Blackgrass: 500 g ai/ha, scale 0 to 100
# Summary of the method: as §2
# [7] = test system: giant foxtail (Setaria faberii); test: Test B pre/postemergence
# Summary of the method: as §2
# [8] = test system: cocklebur (Xanthium strumarium); test: Test B pre/postemergence
# Summary of the method: as §2
# [9] = test system: pigweed (Amaranthus retroflexus); test: Test B pre/postemergence
# Summary of the method: as §2
# [10] = test system: barnyardgrass (Echinochloa crus-galli); test: Test B pre/postemergence
# Summary of the method: as §2
# [11] = test system: wheat (Triticum aestivum); test: Test B pre/postemergence
# Summary of the method: as §2
# [12] = test system: corn (Zea mays); test: Test B pre/postemergence
# Summary of the method: as §2
# [13] = test system: morningglory (Ipomoea coccinea); test: Test B pre/postemergence
# Summary of the method: as §2
# [14] = test system: lambsquarters (Chenopodium album); test: Test B pre/postemergence
# Summary of the method: as §2
# [15] = test system: velvetleaf (Abutilon theophrasti); test: Test B pre/postemergence
# Summary of the method: as §2
# [16] = test system: Surinam grass (Brachiaria decumbens); test: Test B pre/postemergence
# Summary of the method: as §2
# [17] = test system: crabgrass (Digitaria sanguinalis); test: Test B pre/postemergence
# Summary of the method: as §2
# [18] = Preemergence, 125 g ai/ha, scale 0 to 100 (0 no effect, 100 complete control)
# [19] = Preemergence, 500 g ai/ha, scale 0 to 100 (0 no effect, 100 complete control)
# [20] = Postemergence, 125 g ai/ha, scale 0 to 100 (0 no effect, 100 complete control)
# [21] = Postemergence, 500 g ai/ha, scale 0 to 100
compound,measurement,setting,value
COC(=O)c1nc(-c2ccc(C(F)(F)F)cc2)nc(N)c1Cl [Compound 44],"Plant response rating, Barnyardgrass",[1],0
same,"Plant response rating, Rice",[2],0
same,"Plant response rating, Ducksalad",[3],90
same,"Plant response rating, Sedge, Umbrella",[4],80
same,"Oat, Wild plant response rating",[5],0
same,"Plant response rating, Oat, Wild",[5],0
same,Blackgrass plant response rating,[6],30
same,"Plant response rating, Blackgrass",[6],40
same,"Plant response rating, Foxtail, Giant",[7]; [18],20
same,"Foxtail, Giant plant response rating",[7]; [19],40
same,Cocklebur plant response rating,[8]; [20],90
same,"Plant response rating, Cocklebur",[8]; [21],100
same,"Plant response rating, Cocklebur",[8]; [18],10
same,Cocklebur plant response rating,[8]; [19],80
same,Pigweed plant response rating,[9]; [20],80
same,"Plant response rating, Pigweed",[9]; [21],90
same,"Plant response rating, Pigweed",[9]; [18],70
same,Pigweed plant response rating,[9]; [19],80
same,Barnyardgrass plant response rating,[10]; [20],40
same,"Plant response rating, Barnyardgrass",[10]; [21],50
same,"Plant response rating, Barnyardgrass",[10]; [18],0
same,Barnyardgrass plant response rating,[10]; [19],10
same,Wheat plant response rating,[11]; [20],0
same,"Plant response rating, Wheat",[11]; [21],30
same,"Plant response rating, Wheat",[11]; [18],30
same,"Plant response rating, Wheat",[11]; [19],60
same,Corn plant response rating,[12]; [20],30
same,"Plant response rating, Corn",[12]; [21],70
same,"Plant response rating, Corn",[12]; [18],0
same,Corn plant response rating,[12]; [19],0
same,Morningglory plant response rating,[13]; [20],80
same,"Plant response rating, Morningglory",[13]; [21],100
same,"Plant response rating, Morningglory",[13]; [18],10
same,Morningglory plant response rating,[13]; [19],40
same,Lambsquarters plant response rating,[14]; [20],90
same,"Plant response rating, Lambsquarters",[14]; [21],90
same,Lambsquarters plant response rating,[14]; [19],60
same,Velvetleaf plant response rating,[15]; [20],80
same,"Plant response rating, Velvetleaf",[15]; [21],90
same,"Plant response rating, Velvetleaf",[15]; [18],30
same,Velvetleaf plant response rating,[15]; [19],80
same,"Plant response rating, Surinam Grass",[16]; [21],50
same,"Plant response rating, Surinam Grass",[16]; [18],40
same,Surinam Grass plant response rating,[16]; [19],60
same,Crabgrass plant response rating,[17]; [20],70
same,"Plant response rating, Crabgrass",[17]; [21],80
same,"Plant response rating, Crabgrass",[17]; [18],40
same,Crabgrass plant response rating,[17]; [19],80
CCOC(=O)C(OC(C)=O)c1nc(C2CC2)nc(N)c1Br (stereo not shown) [Compound 47],"Plant response rating, Barnyardgrass",[1],0
same,"Plant response rating, Rice",[2],0
same,"Plant response rating, Ducksalad",[3],80
same,"Plant response rating, Sedge, Umbrella",[4],70
same,"Oat, Wild plant response rating",[5],0
same,"Plant response rating, Oat, Wild",[5],0
same,Blackgrass plant response rating,[6],0
same,"Plant response rating, Blackgrass",[6],0
same,"Foxtail, Giant plant response rating",[7]; [20],10
same,"Plant response rating, Foxtail, Giant",[7]; [21],50
same,"Plant response rating, Foxtail, Giant",[7]; [18],20
same,"Foxtail, Giant plant response rating",[7]; [19],40
same,Cocklebur plant response rating,[8]; [20],90
same,"Plant response rating, Cocklebur",[8]; [21],100
same,"Plant response rating, Cocklebur",[8]; [18],80
same,Cocklebur plant response rating,[8]; [19],90
same,Pigweed plant response rating,[9]; [20],70
same,"Plant response rating, Pigweed",[9]; [21],80
same,"Plant response rating, Pigweed",[9]; [18],80
same,Pigweed plant response rating,[9]; [19],90
same,Barnyardgrass plant response rating,[10]; [20],20
same,"Plant response rating, Barnyardgrass",[10]; [21],60
same,"Plant response rating, Barnyardgrass",[10]; [18],0
same,Barnyardgrass plant response rating,[10]; [19],40
same,Wheat plant response rating,[11]; [20],0
same,"Plant response rating, Wheat",[11]; [21],0
same,"Plant response rating, Wheat",[11]; [18],20
same,"Plant response rating, Wheat",[11]; [19],50
same,Corn plant response rating,[12]; [20],0
same,"Plant response rating, Corn",[12]; [21],0
same,"Plant response rating, Corn",[12]; [18],0
same,Corn plant response rating,[12]; [19],30
same,Morningglory plant response rating,[13]; [20],80
same,"Plant response rating, Morningglory",[13]; [21],90
same,"Plant response rating, Morningglory",[13]; [18],80
same,Morningglory plant response rating,[13]; [19],100
same,Lambsquarters plant response rating,[14]; [20],80
same,"Plant response rating, Lambsquarters",[14]; [21],90
same,"Plant response rating, Lambsquarters",[14]; [18],90
same,Lambsquarters plant response rating,[14]; [19],100
same,Velvetleaf plant response rating,[15]; [20],20
same,"Plant response rating, Velvetleaf",[15]; [21],40
same,"Plant response rating, Velvetleaf",[15]; [18],60
same,Velvetleaf plant response rating,[15]; [19],90
same,Surinam Grass plant response rating,[16]; [20],0
same,"Plant response rating, Surinam Grass",[16]; [21],20
same,"Plant response rating, Surinam Grass",[16]; [18],0
same,Surinam Grass plant response rating,[16]; [19],20
same,Crabgrass plant response rating,[17]; [20],10
same,"Plant response rating, Crabgrass",[17]; [21],60
same,"Plant response rating, Crabgrass",[17]; [18],20
same,Crabgrass plant response rating,[17]; [19],90
